Source: patent US20010034448A1, “New compounds, their preparation and use” (priority 1998, published 2001)

Columns and labels:
[1] = test system: RAR; conditions: Heyman et al. Cell 1992, 68, 397-406; cited from earlier work
[2] = test system: RXR/PPAR heterodimers; conditions: Mukherjee et al., Nature 1997, 386, 407-410; WO 97/10819; cited from earlier work
[3] = test system: ob/ob and db/db mice; conditions: Mukherjee et al., Nature 1997; cited from earlier work

CC1=C(/C=C/C(C)=C\C=C\C(C)=C\C(=O)O)C(C)(C)CCC1 [9-cis retinoic acid]
activation of RAR [1]: activates both RXR and RAR

Cc1cc2c(cc1C13CC1CCC3=Cc1ccc(C(=O)O)cc1)C(C)(C)CCC2(C)C (stereo not shown) [Example 1, 4-[1-(3,5,5,8,8-Pentamethyl-5,6,7,8-tetrahydro-naphthalen-2-yl)-bicyclo[3.1.0]hex-2-ylidenemethyl]-benzoic Acid]
melting point: 274.5 to 275.2 °C

Cc1cc2c(cc1C1(c3ccc(C(=O)O)cn3)CC1)C(C)(C)CCC2(C)C [LG 100268]
activation of RXR/PPAR heterodimers [2]: activate RXR/PPAR heterodimers | glucose, insulin and triglyceride levels [3]: reduction in glucose, insulin and triglyceride levels
